Tests used:
Test in all cases: Ba/F3 drug screening, Cell Titer Glo, IC50 Mut/WT
Assay type in all cases: cell-based
[1] = target: T1, EGFR T725M (Homo sapiens, UniProt P00533, T725M); conditions: Classical-Like, 72 hours
T1 construct: expressed in transfected cells; host or cells: Ba/F3 cells, retroviral pBabe-Puro vector (vector made by GeneScript from EGFR WT)
Experimental: (§1) Data represent the ratio of the IC50 value for a given TKI for cells with a classical-like EGFR mutation to the IC50 value for cells with wildtype EGFR.
(§2) Ba/F3 cell generation, drug screening, and IC50 approximations. Ba/F3 cells were obtained as a gift from Dr. Gordon Mills (MD Anderson Cancer Center), and maintained in RPMI (Sigma) containing 10% FBS, 1% penicillin/streptomycin, and 10 ng/ml recombinant mIL-3 (R&D Biosystems). To establish stable Ba/F3 cell lines, Ba/F3 cells were transduced with retroviruses containing mutant EGFR plasmids for 12-24 hours.
(§3) After 48-72 hours of transduction, 2 μg/ml puromycin (Invitrogen) was added to Ba/F3 cell lines in complete RPMI. To select for EGFR positive cell lines, cells were stained with PE-EGFR (Biolegend) and sorted by FACS. After sorting, EGFR positive cells were maintained in RPMI containing 10% FBS, 1% penicillin/streptomycin, and 1 ng/ml EGF to support cell viability. […] Shortly, cells were plated in 384-well plates (Greiner Bio-One) at 2000-3000 cells per well in technical triplicate. Seven different concentrations of TKIs or DMSO vehicle were added to reach a final volume of 40 μL per well. After 72 hours, 11 μL of Cell Titer Glo (Promega) was added to each well. Plates were incubated for a minimum of 10 minutes, and bioluminescence was determined using a FLUOstar OPTIMA plate reader (BMG LABTECH). Raw bioluminescence values were normalized to DMSO control treated cells, and values were plotted in GraphPad Prism. […] Drug screens were performed in technical triplicate on each plate and either duplicate or triplicate biological replicates.

[2] = target: T2, EGFR L858R/T790M/L718Q (Homo sapiens, UniProt P00533, L718Q/L858R/T790M); conditions: T790M-like-3R, 72 hours
T2 construct: expressed in transfected cells; host or cells: Ba/F3
Experimental: (§4) Data represent the ratio of the IC50 value for a given TKI for cells with a T790M-like-3R EGFR mutation to the IC50 value for cells with wildtype EGFR.
as §2
(§5) After 48-72 hours of transduction, 2 μg/ml puromycin (Invitrogen) was added to Ba/F3 cell lines in complete RPMI. To select for EGFR positive cell lines, cells were stained with PE-EGFR (Biolegend) and sorted by FACS. After sorting, EGFR positive cells were maintained in RPMI containing 10% FBS, 1% penicillin/streptomycin, and 1 ng/ml EGF to support cell viability. […] Shortly, cells were plated in 384-well plates (Greiner Bio-One) at 2000-3000 cells per well in technical triplicate. Seven different concentrations of TKIs or DMSO vehicle were added to reach a final volume of 40 μL per well. After 72 hours, 11 μL of Cell Titer Glo (Promega) was added to each well. Plates were incubated for a minimum of 10 minutes, and bioluminescence was determined using a FLUOstar OPTIMA plate reader (BMG LABTECH). Raw bioluminescence values were normalized to DMSO control treated cells, and values were plotted in GraphPad Prism. […] Drug screens were performed in technical triplicate on each plate and either duplicate or triplicate biological replicates. […] Statistical differences between groups were determined by ANOVA as described in the figure legends.

[3] = target: T3, EGFR L747S (Homo sapiens, UniProt P00533, L747S)
T3 construct: expressed in transfected cells; host or cells: Ba/F3
Experimental: (§6) Data represent the ratio of the IC50 value for a given TKI for cells with a PACC EGFR mutation to the IC50 value for cells with wildtype EGFR.
as §2
(§7) After 48-72 hours of transduction, 2 μg/ml puromycin (Invitrogen) was added to Ba/F3 cell lines in complete RPMI. To select for EGFR positive cell lines, cells were stained with PE-EGFR (Biolegend) and sorted by FACS. After sorting, EGFR positive cells were maintained in RPMI containing 10% FBS, 1% penicillin/streptomycin, and 1 ng/ml EGF to support cell viability. Drug screening was performed as previously described^41,42. Shortly, cells were plated in 384-well plates (Greiner Bio-One) at 2000-3000 cells per well in technical triplicate. Seven different concentrations of TKIs or DMSO vehicle were added to reach a final volume of 40 μL per well. After 72 hours, 11 μL of Cell Titer Glo (Promega) was added to each well. Plates were incubated for a minimum of 10 minutes, and bioluminescence was determined using a FLUOstar OPTIMA plate reader (BMG LABTECH). Raw bioluminescence values were normalized to DMSO control treated cells, and values were plotted in GraphPad Prism. […] Drug screens were performed in technical triplicate on each plate and either duplicate or triplicate biological replicates.

[4] = target: T4, EGFR E709K (Homo sapiens, UniProt P00533, E709K)
T4 construct: expressed in transfected cells; host or cells: Ba/F3

[5] = target: T5, EGFR G719A T790M (Homo sapiens, UniProt P00533, G719A/T790M); conditions: T790M-like-3S, 72 hours
T5 construct: expressed in transfected cells; host or cells: Ba/F3
Experimental: Data represent the ratio of the IC50 value for a given TKI for cells with a T790M-like-3S EGFR mutation to the IC50 value for cells with wildtype EGFR.
as §2, §7

[6] = target: T6, EGFR V769L (Homo sapiens, UniProt P00533, V769L)
T6 construct: expressed in transfected cells; host or cells: Ba/F3
Experimental: as §6, §2, §7

[7] = target: T7, EGFR Ex19del T854I (Homo sapiens, UniProt P00533, DEL746-750/T854I)
T7 construct: expressed in transfected cells; host or cells: Ba/F3 (retroviral transduction, pBabe-Puro based vectors)
Experimental: as §6, §2, §7

[8] = target: T8, EGFR Ex19del G796S (Homo sapiens, UniProt P00533, DEL746-750/G796S)
T8 construct: expressed in transfected cells; host or cells: Ba/F3
Experimental: as §6, §2, §7

[9] = target: T9, EGFR D761N (Homo sapiens, UniProt P00533, D761N); conditions: Classical-Like, 72 hours
T9 construct: expressed in transfected cells; host or cells: Ba/F3 cells, retroviral pBabe-Puro vector
Experimental: as §1, §2, §3

[10] = target: T10, EGFR L858R G724S (Homo sapiens, UniProt P00533, G724S/L858R)
T10 construct: expressed in transfected cells; host or cells: Ba/F3 (retroviral transduction, pBabe-Puro based vectors)
Experimental: as §6, §2, §7

[11] = target: T11, EGFR K757R (Homo sapiens, UniProt P00533, K757R)
T11 construct: expressed in transfected cells; host or cells: Ba/F3

[12] = target: T12, EGFR S768dupSVD V769M (Homo sapiens, UniProt P00533, INS768MDS/V769M); conditions: Ex20, 72 hours
T12 construct: expressed in transfected cells; host or cells: Ba/F3 cells, retroviral pBabe-Puro vector (vector made by GeneScript from EGFR S768dupSVD, c.2305G > A)
Experimental: (§8) Data represent the ratio of the IC50 value for a given TKI for cells with an ex20ins EGFR mutation to the IC50 value for cells with wildtype EGFR.
as §2
(§9) After 48-72 hours of transduction, 2 μg/ml puromycin (Invitrogen) was added to Ba/F3 cell lines in complete RPMI. To select for EGFR positive cell lines, cells were stained with PE-EGFR (Biolegend) and sorted by FACS. After sorting, EGFR positive cells were maintained in RPMI containing 10% FBS, 1% penicillin/streptomycin, and 1 ng/ml EGF to support cell viability. Drug screening was performed as previously described^41,42. Shortly, cells were plated in 384-well plates (Greiner Bio-One) at 2000-3000 cells per well in technical triplicate. Seven different concentrations of TKIs or DMSO vehicle were added to reach a final volume of 40 μL per well. After 72 hours, 11 μL of Cell Titer Glo (Promega) was added to each well. Plates were incubated for a minimum of 10 minutes, and bioluminescence was determined using a FLUOstar OPTIMA plate reader (BMG LABTECH). Raw bioluminescence values were normalized to DMSO control treated cells, and values were plotted in GraphPad Prism. […] Drug screens were performed in technical triplicate on each plate and either duplicate or triplicate biological replicates. […] Statistical differences between groups were determined by ANOVA as described in the figure legends.

[13] = target: T13, EGFR Ex19del L718Q (Homo sapiens, UniProt P00533, DEL746-750/L718Q)
T13 construct: expressed in transfected cells; host or cells: Ba/F3
Experimental: as §6, §2, §7

[14] = target: T14, EGFR S784F (Homo sapiens, UniProt P00533, S784F); conditions: Classical-Like, 72 hours
T14 construct: expressed in transfected cells; host or cells: Ba/F3 cells, retroviral pBabe-Puro vector (vector made by GeneScript from EGFR WT)
Experimental: as §1, §2, §3

[15] = target: T15, EGFR L858R/T790M/C797S (Homo sapiens, UniProt P00533, C797S/L858R/T790M); conditions: T790M-like-3R, 72 hours
T15 construct: expressed in transfected cells; host or cells: Ba/F3
Experimental: as §4, §2, §5

[16] = target: T16, EGFR L833V (Homo sapiens, UniProt P00533, L833V); conditions: Classical-Like, 72 hours
T16 construct: expressed in transfected cells; host or cells: Ba/F3 cells, retroviral pBabe-Puro vector
Experimental: as §1, §2, §3

[17] = target: T17, EGFR Ex19del/L792H (Homo sapiens, UniProt P00533, DEL746-750/L792H)
T17 construct: expressed in transfected cells; host or cells: Ba/F3
Experimental: as §6, §2, §7

[18] = target: T18, EGFR Ex19del L718V (Homo sapiens, UniProt P00533, DEL746-750/L718V)
T18 construct: expressed in transfected cells; host or cells: Ba/F3
Experimental: as §6, §2, §7

[19] = target: T19, EGFR L858R T790M V843I (Homo sapiens, UniProt P00533, L858R/T790M/V843I); conditions: T790M-like-3S, 72 hours
T19 construct: expressed in transfected cells; host or cells: Ba/F3

[20] = target: T20, EGFR E709A (Homo sapiens, UniProt P00533, E709A)
T20 construct: expressed in transfected cells; host or cells: Ba/F3
Experimental: as §6, §2, §7

[21] = target: T21, EGFR L861R (Homo sapiens, UniProt P00533, L861R); conditions: Classical-Like, 72 hours
T21 construct: expressed in transfected cells; host or cells: Ba/F3 cells, retroviral pBabe-Puro vector (vector made by GeneScript from EGFR WT)

[22] = target: T22, EGFR Ex19del G724S (Homo sapiens, UniProt P00533, DEL746-750/G724S)
T22 construct: expressed in transfected cells; host or cells: Ba/F3
Experimental: as §6, §2, §7

[23] = target: T23, EGFR A767insASV (Homo sapiens, UniProt P00533, DUP767-769); conditions: Ex20, 72 hours
T23 construct: expressed in transfected cells; host or cells: Ba/F3 cells, retroviral pBabe-Puro vector
Experimental: as §8, §2, §9

Compound: COc1cc2ncnc(Nc3cccc(Cl)c3F)c2cc1OC(=O)N1CCN(C)C[C@H]1C [AZD3759]
- ratio of IC50 for cells with mutant EGFR to IC50 for cells with wildtype EGFR (Mut/WT) [1]: 0.1059
- ratio of IC50 for cells with mutant EGFR to IC50 for cells with wildtype EGFR (Mut/WT) [2]: 4.812
- ratio of IC50 for cells with mutant EGFR to IC50 for cells with wildtype EGFR (Mut/WT) ([3]; PACC, L747S, Ba/F3, 72 hours): 0.08122
- ratio of IC50 for cells with mutant EGFR to IC50 for cells with wildtype EGFR (Mut/WT) ([4]; PACC, E709K, Ba/F3, 72 hours): 0.3129
- ratio of IC50 for cells with mutant EGFR to IC50 for cells with wildtype EGFR (Mut/WT) [5]: 9.625
- ratio of IC50 for cells with mutant EGFR to IC50 for cells with wildtype EGFR (Mut/WT) ([6]; PACC, V769L, Ba/F3, 72 hours): 0.9765
- ratio of IC50 for cells with mutant EGFR to IC50 for cells with wildtype EGFR (Mut/WT) ([7]; PACC, Ex19del T854I, Ba/F3, 72 hours): 1.509
- ratio of IC50 for cells with mutant EGFR to IC50 for cells with wildtype EGFR (Mut/WT) ([8]; PACC, Ex19del G796S, Ba/F3, 72 hours): 4.084
- ratio of IC50 for cells with mutant EGFR to IC50 for cells with wildtype EGFR (Mut/WT) [9]: 0.6757
- ratio of IC50 for cells with mutant EGFR to IC50 for cells with wildtype EGFR (Mut/WT) ([10]; PACC, L858R G724S, Ba/F3, 72 hours): 0.0005419
- ratio of IC50 for cells with mutant EGFR to IC50 for cells with wildtype EGFR (Mut/WT) ([11]; PACC, K757R, Ba/F3, 72 hours): 0.7085
- ratio of IC50 for cells with mutant EGFR to IC50 for cells with wildtype EGFR (Mut/WT) [12]: 1.659
- ratio of IC50 for cells with mutant EGFR to IC50 for cells with wildtype EGFR (Mut/WT) ([13]; PACC, Ex19del L718Q, Ba/F3, 72 hours): 4.812
- ratio of IC50 for cells with mutant EGFR to IC50 for cells with wildtype EGFR (Mut/WT) [14]: 0.0702
- ratio of IC50 for cells with mutant EGFR to IC50 for cells with wildtype EGFR (Mut/WT) [15]: 9.625
- ratio of IC50 for cells with mutant EGFR to IC50 for cells with wildtype EGFR (Mut/WT) [16]: 0.1488
- ratio of IC50 for cells with mutant EGFR to IC50 for cells with wildtype EGFR (Mut/WT) ([17]; PACC, Ex19del/L792H, Ba/F3, 72 hours): 9.625
- ratio of IC50 for cells with mutant EGFR to IC50 for cells with wildtype EGFR (Mut/WT) ([18]; PACC, Ex19del L718V, Ba/F3, 72 hours): 0.04127
- ratio of IC50 for cells with mutant EGFR to IC50 for cells with wildtype EGFR (Mut/WT) [19]: 9.625
- ratio of IC50 for cells with mutant EGFR to IC50 for cells with wildtype EGFR (Mut/WT) ([20]; PACC, E709A, Ba/F3, 72 hours): 0.1241
- ratio of IC50 for cells with mutant EGFR to IC50 for cells with wildtype EGFR (Mut/WT) [21]: 0.03704
- ratio of IC50 for cells with mutant EGFR to IC50 for cells with wildtype EGFR (Mut/WT) ([22]; PACC, Ex19del G724S, Ba/F3, 72 hours): 4.812
- ratio of IC50 for cells with mutant EGFR to IC50 for cells with wildtype EGFR (Mut/WT) [23]: 4.154

Compound: C=CC(=O)N[C@H]1C=C(C)c2c(-c3cnc4ccccc4c3)c3c(N)ncnc3n2C1 [TAS 6417]
- ratio of IC50 for cells with mutant EGFR to IC50 for cells with wildtype EGFR (Mut/WT) [1]: 0.02572
- ratio of IC50 for cells with mutant EGFR to IC50 for cells with wildtype EGFR (Mut/WT) [2]: 3.055
- ratio of the IC50 value for cells with a PACC EGFR mutation to the IC50 value for cells with wildtype EGFR ([3]; Ba/F3 cells, EGFR L747S (PACC), Mut/WT): 0.06482
- ratio of the IC50 value for cells with a PACC EGFR mutation to the IC50 value for cells with wildtype EGFR ([4]; Ba/F3 cells, EGFR E709K (PACC), Mut/WT): 0.2516
- ratio of IC50 for cells with mutant EGFR to IC50 for cells with wildtype EGFR (Mut/WT) [5]: 0.01296
- ratio of the IC50 value for cells with a PACC EGFR mutation to the IC50 value for cells with wildtype EGFR ([6]; Ba/F3 cells, EGFR V769L (PACC), Mut/WT): 0.159
- ratio of the IC50 value for cells with a PACC EGFR mutation to the IC50 value for cells with wildtype EGFR ([7]; Ba/F3 cells, EGFR Ex19del T854I (PACC), Mut/WT): 0.0152
- ratio of the IC50 value for cells with a PACC EGFR mutation to the IC50 value for cells with wildtype EGFR ([8]; Ba/F3 cells, EGFR Ex19del G796S (PACC), Mut/WT): 0.06554
- ratio of IC50 for cells with mutant EGFR to IC50 for cells with wildtype EGFR (Mut/WT) [9]: 0.2474
- ratio of the IC50 value for cells with a PACC EGFR mutation to the IC50 value for cells with wildtype EGFR ([10]; Ba/F3 cells, EGFR L858R G724S (PACC), Mut/WT): 0.01631
- ratio of the IC50 value for cells with a PACC EGFR mutation to the IC50 value for cells with wildtype EGFR ([11]; Ba/F3 cells, EGFR K757R (PACC), Mut/WT): 0.4608
- ratio of IC50 for cells with mutant EGFR to IC50 for cells with wildtype EGFR (Mut/WT) [12]: 0.02679
- ratio of the IC50 value for cells with a PACC EGFR mutation to the IC50 value for cells with wildtype EGFR ([13]; Ba/F3 cells, EGFR Ex19del L718Q (PACC), Mut/WT): 2.333
- ratio of IC50 for cells with mutant EGFR to IC50 for cells with wildtype EGFR (Mut/WT) [14]: 0.01015
- ratio of IC50 for cells with mutant EGFR to IC50 for cells with wildtype EGFR (Mut/WT) [15]: 4.897
- ratio of IC50 for cells with mutant EGFR to IC50 for cells with wildtype EGFR (Mut/WT) [16]: 0.03111
- ratio of the IC50 value for cells with a PACC EGFR mutation to the IC50 value for cells with wildtype EGFR ([17]; Ba/F3 cells, EGFR Ex19del/L792H (PACC), Mut/WT): 0.008269
- ratio of the IC50 value for cells with a PACC EGFR mutation to the IC50 value for cells with wildtype EGFR ([18]; Ba/F3 cells, EGFR Ex19del L718V (PACC), Mut/WT): 0.0009364
- ratio of IC50 for cells with mutant EGFR to IC50 for cells with wildtype EGFR (Mut/WT) [19]: 0.07336
- ratio of the IC50 value for cells with a PACC EGFR mutation to the IC50 value for cells with wildtype EGFR ([20]; Ba/F3 cells, EGFR E709A (PACC), Mut/WT): 0.3054
- ratio of IC50 for cells with mutant EGFR to IC50 for cells with wildtype EGFR (Mut/WT) [21]: 0.02984
- ratio of the IC50 value for cells with a PACC EGFR mutation to the IC50 value for cells with wildtype EGFR ([22]; Ba/F3 cells, EGFR Ex19del G724S (PACC), Mut/WT): 0.2809
- ratio of IC50 for cells with mutant EGFR to IC50 for cells with wildtype EGFR (Mut/WT) [23]: 0.1359

Source: US20240384350A1, “METHODS OF TREATING CANCER WITH KINASE INHIBITORS” (BOARD OF REGENTS, THE UNIVERSITY OF TEXAS SYSTEM, priority 2021, published 2024)
